Test results published in article PMC3855667 (Biochemistry, 2013).

Biological target: EmrD (Escherichia coli, UniProt P31442)
Assay: fluorescence anisotropy titration with EmrD
Type: binding

Sequence of EmrD (P31442 whole entry): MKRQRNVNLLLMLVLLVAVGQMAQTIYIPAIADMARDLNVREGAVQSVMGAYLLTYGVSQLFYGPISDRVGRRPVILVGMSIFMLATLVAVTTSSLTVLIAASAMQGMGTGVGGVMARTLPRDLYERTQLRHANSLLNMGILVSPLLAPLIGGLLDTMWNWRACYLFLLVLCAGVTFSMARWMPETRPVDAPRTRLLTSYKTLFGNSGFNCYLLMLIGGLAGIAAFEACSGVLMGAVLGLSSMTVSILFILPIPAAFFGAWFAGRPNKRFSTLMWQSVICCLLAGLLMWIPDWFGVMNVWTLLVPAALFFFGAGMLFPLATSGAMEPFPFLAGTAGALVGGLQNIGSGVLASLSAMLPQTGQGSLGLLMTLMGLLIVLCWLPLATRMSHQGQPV

**Q.** How did the Kd turn out when `COc1cccc2c1C(=O)c1c(O)c3c(c(O)c1C2=O)C[C@@](O)(C(=O)CO)C[C@@H]3O[C@H]1C[C@H](N)[C@H](O)[C@H](C)O1` [doxorubicin] was run?
**A.** Its Kd is ~7 µM.
